{
  "source": "patent US11357230B2",
  "about": "“Herbicidal amides” (FMC Corporation, priority 2017, dated 2022)",
  "assay_type_in_all_cases": "in vivo",
  "key": {"[1]": {"tested_on": "barnyardgrass (Echinochloa crus-galli)", "assay": "Test A postemergence, barnyardgrass", "conditions": "approximately 10 d", "description": "(§1) Seeds of plant species selected from barnyardgrass (Echinochloa crus-galli), kochia (Kochia scoparia), ragweed (common ragweed, Ambrosia elatior), ryegrass, Italian (Italian ryegrass, Lolium multiflorum), foxtail, green (green foxtail, Setaria viridis), and pigweed (Amaranthus retroflexus) were planted into a blend of loam soil and sand and treated preemergence with a directed soil spray using test chemicals formulated in a non-phytotoxic solvent mixture which included a surfactant. At the same time, plants selected from these weed species and also wheat (Triticum aestivum), corn (Zea mays), blackgrass (Alopecurus myosuroides), and galium (catchweed bedstraw, Galium aparine) were planted in pots containing the same blend of loam soil and sand and treated with postemergence applications of test chemicals formulated in the same manner. Plants ranged in height from 2 to 10 cm and were in the one- to two-leaf stage for the postemergence treatment. Treated plants and untreated controls were maintained in a greenhouse for approximately 10 d, after which time all treated plants were compared to untreated controls and visually evaluated for injury. Plant response ratings, summarized in Table A, are based on a 0 to 100 scale where 0 is no effect and 100 is complete control. A dash (-) response means no test result."}, "[2]": {"tested_on": "blackgrass (Alopecurus myosuroides)", "assay": "Test A postemergence, blackgrass", "conditions": "approximately 10 d", "description": "as §1"}, "corn (Zea mays)": {"tested_on": "corn (Zea mays)", "assay": "Test A postemergence, corn", "conditions": "approximately 10 d", "description": "as §1"}, "Foxtail, Giant [3]": {"tested_on": "Foxtail, Giant", "assay": "Test A postemergence, giant foxtail", "conditions": "approximately 10 d"}, "[4]": {"tested_on": "galium (catchweed bedstraw, Galium aparine)", "assay": "Test A postemergence, galium", "conditions": "approximately 10 d", "description": "as §1"}, "kochia (Kochia scoparia) [5]": {"tested_on": "kochia (Kochia scoparia)", "assay": "Test A postemergence, kochia", "conditions": "approximately 10 d", "description": "as §1"}, "[6]": {"tested_on": "pigweed (Amaranthus retroflexus)", "assay": "Test A postemergence, pigweed", "conditions": "approximately 10 d", "description": "as §1"}, "[7]": {"tested_on": "ragweed (common ragweed, Ambrosia elatior)", "assay": "Test A postemergence, ragweed", "conditions": "approximately 10 d", "description": "as §1"}, "[8]": {"tested_on": "ryegrass, Italian (Italian ryegrass, Lolium multiflorum)", "assay": "Test A postemergence, Italian ryegrass", "conditions": "approximately 10 d", "description": "as §1"}, "[9]": {"tested_on": "wheat (Triticum aestivum)", "assay": "Test A postemergence, wheat", "conditions": "approximately 10 d", "description": "as §1"}, "[10]": {"tested_on": "barnyardgrass (Echinochloa crus-galli)", "assay": "Test A preemergence, barnyardgrass", "conditions": "approximately 10 d", "description": "as §1"}, "Foxtail, Giant [11]": {"tested_on": "Foxtail, Giant", "assay": "Test A preemergence, giant foxtail", "conditions": "approximately 10 d"}, "kochia (Kochia scoparia) [12]": {"tested_on": "kochia (Kochia scoparia)", "assay": "Test A preemergence, kochia", "conditions": "approximately 10 d", "description": "as §1"}, "[13]": {"tested_on": "pigweed (Amaranthus retroflexus)", "assay": "Test A preemergence, pigweed", "conditions": "approximately 10 d", "description": "as §1"}, "[14]": {"tested_on": "ragweed (common ragweed, Ambrosia elatior)", "assay": "Test A preemergence, ragweed", "conditions": "125 g ai/ha, approximately 10 d", "description": "as §1"}, "[15]": {"tested_on": "ryegrass, Italian (Italian ryegrass, Lolium multiflorum)", "assay": "Test A preemergence, Italian ryegrass", "conditions": "approximately 10 d", "description": "as §1"}, "[16]": {"tested_on": "barnyardgrass (Echinochloa crus-galli)", "assay": "Test B flooded paddy test, barnyardgrass", "conditions": "250 g ai/ha, Flood (paddy water), 13 to 15 d", "experimental": "(§2) Plant species in the flooded paddy test selected from rice (Oryza sativa), sedge, umbrella (small-flower umbrella sedge, Cyperus difformis), ducksalad (Heteranthera limosa), and barnyardgrass (Echinochloa crus-galli) were grown to the 2-leaf stage for testing. At time of treatment, test pots were flooded to 3 cm above the soil surface, treated by application of test compounds directly to the paddy water, and then maintained at that water depth for the duration of the test. Treated plants and controls were maintained in a greenhouse for 13 to 15 d, after which time all species were compared to controls and visually evaluated. Plant response ratings, summarized in Table B, are based on a scale of 0 to 100 where 0 is no effect and 100 is complete control. A dash (-) response means no test result."}, "[17]": {"tested_on": "ducksalad (Heteranthera limosa)", "assay": "Test B flooded paddy test, ducksalad", "conditions": "250 g ai/ha, Flood (paddy water), 13 to 15 d", "experimental": "as §2"}, "rice (Oryza sativa)": {"tested_on": "rice (Oryza sativa)", "assay": "Test B flooded paddy test, rice", "conditions": "250 g ai/ha, Flood (paddy water), 13 to 15 d", "experimental": "as §2"}, "[18]": {"tested_on": "sedge, umbrella (small-flower umbrella sedge, Cyperus difformis)", "assay": "Test B flooded paddy test, umbrella sedge", "conditions": "250 g ai/ha, Flood (paddy water), 13 to 15 d", "experimental": "as §2"}},
  "data": [
    {"smiles": "CN1C[C@H](c2ccc(C(F)(F)F)cc2)[C@@H](C(=O)Nc2cccc(F)c2F)C1=NNC(=O)OC(C)(C)C", "note": "(relative stereo) [Compound 8]", "values": [
      {"measurement": "Plant response rating (0 to 100 scale, 0 is no effect, 100 is complete control)", "setting": "[1]; 31 g ai/ha", "value": 60},
      {"measurement": "Plant response rating (0 to 100 scale, 0 is no effect, 100 is complete control)", "setting": "[1]; 125 g ai/ha", "value": 80},
      {"measurement": "Plant response rating (0 to 100 scale, 0 is no effect, 100 is complete control)", "setting": "[2]; 31 g ai/ha", "value": 30},
      {"measurement": "Plant response rating (0 to 100 scale, 0 is no effect, 100 is complete control)", "setting": "[2]; 125 g ai/ha", "value": 60},
      {"measurement": "Plant response rating (0 to 100 scale, 0 is no effect, 100 is complete control)", "setting": "corn (Zea mays); 31 g ai/ha", "value": 20},
      {"measurement": "Plant response rating (0 to 100 scale, 0 is no effect, 100 is complete control)", "setting": "corn (Zea mays); 125 g ai/ha", "value": 70},
      {"measurement": "Plant response rating (0 to 100 scale, 0 is no effect, 100 is complete control)", "setting": "Foxtail, Giant [3]; 31 g ai/ha", "value": 50},
      {"measurement": "Plant response rating (0 to 100 scale, 0 is no effect, 100 is complete control)", "setting": "Foxtail, Giant [3]; 125 g ai/ha", "value": 80},
      {"measurement": "Plant response rating (0 to 100 scale, 0 is no effect, 100 is complete control)", "setting": "[4]; 31 g ai/ha", "value": 60},
      {"measurement": "Plant response rating (0 to 100 scale, 0 is no effect, 100 is complete control)", "setting": "[4]; 125 g ai/ha", "value": 70},
      {"measurement": "Plant response rating (0 to 100 scale, 0 is no effect, 100 is complete control)", "setting": "kochia (Kochia scoparia) [5]; 31 g ai/ha", "value": 0},
      {"measurement": "Plant response rating (0 to 100 scale, 0 is no effect, 100 is complete control)", "setting": "kochia (Kochia scoparia) [5]; 125 g ai/ha", "value": 0},
      {"measurement": "Plant response rating (0 to 100 scale, 0 is no effect, 100 is complete control)", "setting": "[6]; 31 g ai/ha", "value": 30},
      {"measurement": "Plant response rating (0 to 100 scale, 0 is no effect, 100 is complete control)", "setting": "[6]; 125 g ai/ha", "value": 40},
      {"measurement": "Plant response rating (0 to 100 scale, 0 is no effect, 100 is complete control)", "setting": "[7]; 31 g ai/ha", "value": 0},
      {"measurement": "Plant response rating (0 to 100 scale, 0 is no effect, 100 is complete control)", "setting": "[7]; 125 g ai/ha", "value": 0},
      {"measurement": "Plant response rating (0 to 100 scale, 0 is no effect, 100 is complete control)", "setting": "[8]; 31 g ai/ha", "value": 10},
      {"measurement": "Plant response rating (0 to 100 scale, 0 is no effect, 100 is complete control)", "setting": "[8]; 125 g ai/ha", "value": 60},
      {"measurement": "Plant response rating (0 to 100 scale, 0 is no effect, 100 is complete control)", "setting": "[9]; 31 g ai/ha", "value": 0},
      {"measurement": "Plant response rating (0 to 100 scale, 0 is no effect, 100 is complete control)", "setting": "[9]; 125 g ai/ha", "value": 40},
      {"measurement": "Plant response rating (0 to 100 scale, 0 is no effect, 100 is complete control)", "setting": "[10]; 31 g ai/ha", "value": 90},
      {"measurement": "Plant response rating (0 to 100 scale, 0 is no effect, 100 is complete control)", "setting": "[10]; 125 g ai/ha", "value": 90},
      {"measurement": "Plant response rating (0 to 100 scale, 0 is no effect, 100 is complete control)", "setting": "Foxtail, Giant [11]; 31 g ai/ha", "value": 90},
      {"measurement": "Plant response rating (0 to 100 scale, 0 is no effect, 100 is complete control)", "setting": "Foxtail, Giant [11]; 125 g ai/ha", "value": 90},
      {"measurement": "Plant response rating (0 to 100 scale, 0 is no effect, 100 is complete control)", "setting": "kochia (Kochia scoparia) [12]; 31 g ai/ha", "value": 20},
      {"measurement": "Plant response rating (0 to 100 scale, 0 is no effect, 100 is complete control)", "setting": "kochia (Kochia scoparia) [12]; 125 g ai/ha", "value": 80},
      {"measurement": "Plant response rating (0 to 100 scale, 0 is no effect, 100 is complete control)", "setting": "[13]; 31 g ai/ha", "value": 30},
      {"measurement": "Plant response rating (0 to 100 scale, 0 is no effect, 100 is complete control)", "setting": "[13]; 125 g ai/ha", "value": 80},
      {"measurement": "Plant response rating (0 to 100 scale, 0 is no effect, 100 is complete control)", "setting": "[14]", "value": 20},
      {"measurement": "Plant response rating (0 to 100 scale, 0 is no effect, 100 is complete control)", "setting": "[15]; 31 g ai/ha", "value": 20},
      {"measurement": "Plant response rating (0 to 100 scale, 0 is no effect, 100 is complete control)", "setting": "[15]; 125 g ai/ha", "value": 70},
      {"measurement": "Plant response rating (scale of 0 to 100, 0 is no effect, 100 is complete control)", "setting": "[16]", "value": 75},
      {"measurement": "Plant response rating (scale of 0 to 100, 0 is no effect, 100 is complete control)", "setting": "[17]", "value": 60},
      {"measurement": "Plant response rating (scale of 0 to 100, 0 is no effect, 100 is complete control)", "setting": "rice (Oryza sativa)", "value": 0},
      {"measurement": "Plant response rating (scale of 0 to 100, 0 is no effect, 100 is complete control)", "setting": "[18]", "value": 0}
    ]}
  ]
}
